Source: patent publication US9770026B2, “Substituted pyrimidine compound and uses thereof” (Shenyang Sinochem Agrochemicals R&D Co., Ltd., priority 2012, dated 2017)
Like-named read-outs stand apart in the source and are kept apart here.

Experiments:
[1] = tested on: Green peach aphids (Myzus Persicae Sulzer); test: bioactivity test against green peach aphid, airbrush foliar spray; type: in vivo; settings: Myzus persicae, foliar, 48 h
In short: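 Aphids (15-30 per cabbage leaf disc) on moist filter paper were airbrush-sprayed at 10 psi, 0.5 mL, with compound from acetone:methanol (1:1) diluted in water with 0.1% tween 80. Held at 25±1 C, 60±5% RH; survivors counted after 48 hrs to give death rates.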

rice blast = test: microbe, parasite or virus in culture; type: cell-based; settings: Pyricularia oryzae, read-out: inhibition rate against rice blast, 25 ppm, in vitro
Diamond back moth = test: insecticidal activity against diamond back moth, airbrush spray; type: in vivo; settings: 72 h; for pest or weed control at 600 µg/mL: 600 mg/L
In short: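 Airbrush leaf-disc spray test: both faces of 2 cm cabbage discs received 0.5 ml of test solution at 0.7 kg/cm^2. Solutions were made in acetone:methanol (1:1) and brought to concentration with 0.1% Tween 80 in water. Ten second-instar larvae per disc, triplicates, were held at 25° C and 60˜70% R.H., with mortality recorded at 72 hrs.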

carmine spider mite = test: bioactivity test against carmine spider mite, airbrush spray; type: in vivo; settings: for pest or weed control at 10 µg/mL / pest or weed control at 100 µg/mL / pest or weed control at 600 µg/mL: read-out: Insecticidal activity against carmine spider mite (% )
In short: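 Broadbean seedlings infested with adult mites were sprayed with compound (acetone/methanol stock diluted in 0.1% Tween 80 water) by airbrush at 0.7 kg/cm^2, 0.5 ml. Three replicates were run. Mortality was scored after 72 hrs.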

armyworm = test: bioactivity test against armyworm, airbrush spray; type: in vivo; settings: 72 h; for pest or weed control at 600 µg/mL: 600 mg/L
cucumber downy mildew = test: protectant activity in vivo against cucumber downy mildew; settings: Cucumis sativus, 168 h; for pest or weed control at 25 µg/mL: read-out: control effect against cucumber downy mildew (%), 25 mg/L; for pest or weed control at 50 µg/mL: read-out: control effect against cucumber downy mildew (%), 50 mg/L; for pest or weed control at 100 µg/mL: read-out: control effect against cucumber downy mildew (%), 100 mg/L
wheat powdery mildew = test: protectant activity in vivo against wheat powdery mildew; settings: Triticum aestivum, 168 h; for pest or weed control at 6.25 µg/mL: read-out: control effect against wheat powdery mildew (%), 6.25 mg/L; for pest or weed control at 6.25 µg/mL / pest or weed control at 25 µg/mL / pest or weed control at 100 µg/mL / pest or weed control at 400 µg/mL: protectant activity; for pest or weed control at 25 µg/mL: read-out: control effect against wheat powdery mildew (%), 25 mg/L; for pest or weed control at 100 µg/mL: read-out: control effect against wheat powdery mildew (%), 100 mg/L; for pest or weed control at 400 µg/mL: read-out: control effect against wheat powdery mildew (%), 400 mg/L
corn rust = test: protectant activity in vivo against corn rust; settings: Zea mays, 168 h; for pest or weed control at 6.25 µg/mL: read-out: control effect against corn rust (%), 6.25 mg/L; for pest or weed control at 6.25 µg/mL / pest or weed control at 25 µg/mL / pest or weed control at 100 µg/mL / pest or weed control at 400 µg/mL: protectant activity; for pest or weed control at 25 µg/mL: read-out: control effect against corn rust (%), 25 mg/L; for pest or weed control at 100 µg/mL: read-out: control effect against corn rust (%), 100 mg/L; for pest or weed control at 400 µg/mL: read-out: control effect against corn rust (%), 400 mg/L
cucumber gray mold = test: fungicidal activity in vitro (inhibition rate) against cucumber gray mold; type: cell-based; settings: read-out: inhibition rate against cucumber gray mold
[2] = 10 mg/L, contrastive test, read-out: Insecticidal activity against peach aphid (%)
[3] = 100 mg/L, contrastive test, read-out: Insecticidal activity against peach aphid (%)
[4] = 600 mg/L, contrastive test, read-out: Insecticidal activity against peach aphid (%)
[5] = read-out: control effect against cucumber downy mildew (%), 400 mg/L, protectant activity
[6] = read-out: Insecticidal activity against peach aphid (%)
[7] = read-out: Insecticidal activity against armyworm (%)
[8] = Tetranychus cinnabarinus, 72 h, 600 mg/L, contrastive test

Compound `COc1cc(CCNc2ncnc(C(F)F)c2Cl)ccc1Oc1ccc(Cl)cc1` [II-10583] has a pest or weed control at 10 µg/mL [1, 2] of 100%, a pest or weed control at 100 µg/mL [1, 3] of 100% and a pest or weed control at 600 µg/mL [1, 4] of 100%. For the same compound, the pest or weed control at 10 ppm ([1]; 10 ppm, death rate after 48 hrs) was 100%, the pest or weed control at 100 ppm ([1]; 100 ppm, death rate after 48 hrs) was 100% and the pest or weed control at 600 ppm ([1]; 600 ppm, death rate after 48 hrs) was 100%. The inhibition at 25 ppm (rice blast) was 80 to 99%, the pest or weed control at 600 ppm (Diamond back moth; 600 ppm, mortality after 72 hrs, read-out: control (test results against diamond back moth)) was 100% and the pest or weed control at 600 ppm (carmine spider mite; Tetranychus cinnabarinus, 72 h, 600 ppm, mortality after 72 hrs) was 100%. For the same compound, the pest or weed control at 600 ppm (armyworm; 600 ppm, mortality after 72 h) was 100%, the pest or weed control at 6.25 µg/mL (cucumber downy mildew; read-out: control effect against cucumber downy mildew (%), 6.25 mg/L, protectant activity) was 95% and the pest or weed control at 12.5 µg/mL (cucumber downy mildew; read-out: control effect against cucumber downy mildew (%), 12.5 mg/L, protectant activity) was 95%. For the same compound, the pest or weed control at 25 µg/mL (cucumber downy mildew; protectant activity) was 95%, the pest or weed control at 50 µg/mL (cucumber downy mildew; protectant activity) was 100% and the pest or weed control at 100 µg/mL (cucumber downy mildew; protectant activity) was 100%. For the same compound, the pest or weed control at 400 µg/mL (cucumber downy mildew; [5]) was 100%, the pest or weed control at 6.25 ppm (cucumber downy mildew; read-out: protectant activity against cucumber downy mildew in vivo, 6.25 ppm) was 80 to 99% and the pest or weed control at 12.5 ppm (cucumber downy mildew; read-out: protectant activity against cucumber downy mildew in vivo, 12.5 ppm) was 80 to 99%. For the same compound, the pest or weed control at 25 ppm (cucumber downy mildew; read-out: protectant activity against cucumber downy mildew in vivo, 25 ppm) was 80 to 99%, the pest or weed control at 50 ppm (cucumber downy mildew; read-out: protectant activity against cucumber downy mildew in vivo, 50 ppm) was 80 to 99% and the pest or weed control at 100 ppm (cucumber downy mildew; read-out: protectant activity against cucumber downy mildew in vivo, 100 ppm) was 100%. The pest or weed control at 400 ppm (cucumber downy mildew; read-out: protectant activity against cucumber downy mildew in vivo, 400 ppm) was 100%, the pest or weed control at 6.25 µg/mL (wheat powdery mildew) was 100% and the pest or weed control at 25 µg/mL (wheat powdery mildew) was 100%. It also gave a pest or weed control at 100 µg/mL (wheat powdery mildew) of 100%, a pest or weed control at 400 µg/mL (wheat powdery mildew) of 100% and a pest or weed control at 6.25 ppm (wheat powdery mildew; read-out: protectant activity against wheat powdery mildew in vivo, 6.25 ppm) of 100%. The pest or weed control at 25 ppm (wheat powdery mildew; read-out: protectant activity against wheat powdery mildew in vivo, 25 ppm) was 100%, the pest or weed control at 100 ppm (wheat powdery mildew; read-out: protectant activity against wheat powdery mildew in vivo, 100 ppm) was 100% and the pest or weed control at 400 ppm (wheat powdery mildew; read-out: protectant activity against wheat powdery mildew in vivo, 400 ppm) was 100%. The pest or weed control at 25 ppm (corn rust; read-out: protectant activity against corn rust in vivo, 25 ppm) was 80 to 99%, the pest or weed control at 100 ppm (corn rust; read-out: protectant activity against corn rust in vivo, 100 ppm) was 100% and the pest or weed control at 400 ppm (corn rust; read-out: protectant activity against corn rust in vivo, 400 ppm) was 100%.

With `CC(F)c1ncnc(NCCc2ccc(OC(F)(F)F)cc2)c1Cl` (stereo not shown) [flufenerim, reference compound] the pest or weed control at 1.25 µg/mL [1, 6] was 37%, the pest or weed control at 2.5 µg/mL [1, 6] was 90% and the pest or weed control at 5 µg/mL [1, 6] was 100%. The pest or weed control at 10 µg/mL [1, 6] was 100%, the pest or weed control at 100 µg/mL [1, 6] was 100% and the pest or weed control at 600 µg/mL [1, 6] was 100%. For the same compound, the inhibition at 25 ppm (cucumber gray mold) was 0%, the pest or weed control at 10 µg/mL (carmine spider mite; Tetranychus cinnabarinus, 72 h) was 72% and the pest or weed control at 100 µg/mL (carmine spider mite; Tetranychus cinnabarinus, 72 h) was 100%. It also gave a pest or weed control at 600 µg/mL (carmine spider mite; Tetranychus cinnabarinus, 72 h) of 100% and a pest or weed control at 400 µg/mL (cucumber downy mildew; read-out: control effect against cucumber downy mildew (%)) of 0%.

`Cc1ncnc(NCc2ccc(Oc3ccc(C(F)(F)F)cn3)cc2)c1Cl` [CK22, reference compound] was tested, and the pest or weed control at 600 µg/mL [1, 4] was 0%, the inhibition at 25 ppm (cucumber gray mold; 25 ppm, in vitro) was 0% and the pest or weed control at 600 µg/mL (Diamond back moth) was 0%. It also gave a pest or weed control at 600 µg/mL (armyworm; [7]) of 0%, a pest or weed control at 25 µg/mL (cucumber downy mildew; protectant activity) of 60% and a pest or weed control at 50 µg/mL (cucumber downy mildew; protectant activity) of 75%. For the same compound, the pest or weed control at 100 µg/mL (cucumber downy mildew; protectant activity) was 98%, the pest or weed control at 400 µg/mL (cucumber downy mildew; [5]) was 100% and the pest or weed control at 6.25 µg/mL (wheat powdery mildew) was 0%. For the same compound, the pest or weed control at 25 µg/mL (wheat powdery mildew) was 50%, the pest or weed control at 100 µg/mL (wheat powdery mildew) was 90% and the pest or weed control at 400 µg/mL (wheat powdery mildew) was 100%. For the same compound, the pest or weed control at 6.25 µg/mL (corn rust) was 0%, the pest or weed control at 25 µg/mL (corn rust) was 40% and the pest or weed control at 100 µg/mL (corn rust) was 100%. The pest or weed control at 400 µg/mL (corn rust) was 100%.

For `Cc1ncnc(NCc2ccc(Oc3ncc(Cl)cc3Cl)cc2)c1Cl` [CK37, reference compound], the pest or weed control at 10 µg/mL [1, 2] was 0%, the pest or weed control at 100 µg/mL [1, 3] was 16% and the pest or weed control at 600 µg/mL [1, 4] was 100%. It also gave an inhibition at 25 ppm (rice blast) of under 50%, a pest or weed control at 600 µg/mL (Diamond back moth) of 0% and a pest or weed control at 600 µg/mL (carmine spider mite; [8]) of 0%. For the same compound, the pest or weed control at 600 µg/mL (armyworm; [7]) was 0%, the pest or weed control at 25 µg/mL (cucumber downy mildew; protectant activity) was 0% and the pest or weed control at 50 µg/mL (cucumber downy mildew; protectant activity) was 10%. The pest or weed control at 100 µg/mL (cucumber downy mildew; protectant activity) was 20%, the pest or weed control at 400 µg/mL (cucumber downy mildew; [5]) was 100% and the pest or weed control at 400 µg/mL (wheat powdery mildew) was 0%. It also gave a pest or weed control at 400 µg/mL (corn rust) of 0%.

`CC(Cl)c1ncnc(NCCc2ccc(Oc3ccc(C(F)(F)F)cn3)cc2)c1Cl` (stereo not shown) [CK24, reference compound] was tested, and the pest or weed control at 2.5 µg/mL ([1]; 2.5 mg/L, contrastive test, read-out: Insecticidal activity against peach aphid (%)) was 0%, the pest or weed control at 5 µg/mL ([1]; 5 mg/L, contrastive test, read-out: Insecticidal activity against peach aphid (%)) was 28% and the pest or weed control at 10 µg/mL [1, 2] was 89%. For the same compound, the pest or weed control at 100 µg/mL [1, 3] was 100%, the pest or weed control at 600 µg/mL [1, 4] was 100% and the inhibition at 25 ppm (cucumber gray mold; 25 ppm, in vitro) was under 50%. The “Insecticidal activity against carmine spider mite (% )” value (carmine spider mite; 2.5 mg/L) was 5%, the “Insecticidal activity against carmine spider mite (% )” value (carmine spider mite; 5 mg/L) was 15% and the pest or weed control at 10 µg/mL (carmine spider mite; Tetranychus cinnabarinus, 72 h, 10 mg/L, contrastive test) was 85%. It also gave a pest or weed control at 100 µg/mL (carmine spider mite; Tetranychus cinnabarinus, 72 h, 100 mg/L, contrastive test) of 100%, a pest or weed control at 600 µg/mL (carmine spider mite; [8]) of 100% and a pest or weed control at 10 µg/mL (armyworm; 10 mg/L, read-out: Insecticidal activity against armyworm (%)) of 0%. It also gave a pest or weed control at 100 µg/mL (wheat powdery mildew) of 0%, a pest or weed control at 400 µg/mL (wheat powdery mildew) of 0% and a pest or weed control at 6.25 µg/mL (corn rust) of 0%. The pest or weed control at 25 µg/mL (corn rust) was 20%, the pest or weed control at 100 µg/mL (corn rust) was 50% and the pest or weed control at 400 µg/mL (corn rust) was 100%.
